Like-named read-outs stand apart in the source and are kept apart here.
How the values were obtained:
[1] = Ritonavir pharmacokinetic parameters during pregnancy and postpartum; type: in vivo, human; details: for AUC(0-t): AUC0-12, twice daily dosing; for AUC(0-t) / Cmax: median (interquartile range)
[2] = Cord blood and maternal plasma darunavir concentrations at delivery; type: in vivo, human
[3] = Clinical and laboratory toxicity monitoring of mothers and infants; details: human, in vivo
HIV-1 RNA = assay: Maternal HIV RNA at delivery and infant HIV infection status; type: in vivo; details: median (range)
wild type HIV = details: cited from earlier work
[4] = cited from earlier work; for Mean decrease in darunavir AUC: third trimester, ref 16 (Colbers, et al)
HIV RNA = details: cited from earlier work
[5] = mean (95%CI), ref 16 (Colbers, et al), cited from earlier work
[6] = of 43 subjects, limit 0.09 μg/mL

Q: Which AUC(0-t) ([1]; female, human, plasma, oral, postpartum) does the source give for `CC(C)c1nc(CN(C)C(=O)N[C@H](C(=O)N[C@@H](Cc2ccccc2)C[C@H](O)[C@H](Cc2ccccc2)NC(=O)OCc2cncs2)C(C)C)cs1` [ritonavir] here?
A: 5600 ng·h/mL

Q: And the AUC(0-t) ([1]; female, human, plasma, oral, second trimester)?
A: 3900 ng·h/mL

Q: What about the AUC(0-t) ([1]; female, human, plasma, oral, third trimester) of the same molecule?
A: 3800 ng·h/mL

Q: What about the Cmax ([1]; female, human, plasma, oral, Cmax, once daily dosing, postpartum) of the same molecule?
A: 640 ng/mL

Q: What about the Cmax ([1]; female, human, plasma, oral, Cmax, twice daily dosing, second trimester) of the same molecule?
A: 470 ng/mL

Q: And the Cmax ([1]; female, human, plasma, oral, Cmax, twice daily dosing, third trimester)?
A: 460 ng/mL

Q: And the “Ritonavir exposure during pregnancy” value ([1]; in vivo)?
A: reduced

Q: And the Cmax ([1]; once daily dosing, second trimester)?
A: 290 ng/mL

Q: What about the Cmax ([1]; once daily dosing, third trimester) of the same molecule?
A: 270 ng/mL

Q: For `CC(C)CN(C[C@@H](O)[C@H](Cc1ccccc1)NC(=O)O[C@H]1CO[C@H]2OCC[C@H]21)S(=O)(=O)c1ccc(N)cc1` [darunavir], which “Maternal plasma delivery concentration” value ([2]; median (range), samples above the limit of quantitation) is on record?
A: 1.98 µg/mL

Q: And the “Cord blood samples with concentration below the assay limit of quantitation” value [2, 6]?
A: 15

Q: And the “Maternal samples with concentration below the assay limit of quantitation” value [2, 6]?
A: 11

Q: And the “Subjects indicating side effects of darunavir as a reason for discontinuation” value [3]?
A: No subjects

Q: And the “Tolerability during pregnancy and postpartum” value [3]?
A: well tolerated

Q: What about the “HIV-1 RNA at delivery” value (HIV-1 RNA; Combined N=66) of the same molecule?
A: <50 (<50 - 66,142) copies/mL

Q: And the “HIV-1 RNA at delivery” value (HIV-1 RNA; Once Daily Dosing N=32)?
A: <50 (<50 - 35,313) copies/mL

Q: And the “HIV-1 RNA at delivery” value (HIV-1 RNA; Twice Daily Dosing N=34)?
A: 51 (<50 - 66,142) copies/mL

Q: And the “EC50 for wild type HIV” value (wild type HIV)?
A: 0.06 μ/mL

Q: What about the “Mean decrease in darunavir AUC” value ([4]; 6 women, twice daily dosing) of the same molecule?
A: 34%

Q: What about the “Decrease in darunavir AUC” value ([4]; 14 women dosed twice daily, second and third trimesters, ref 15 (Zorrilla, et al)) of the same molecule?
A: 17-24%

Q: And the “Mean decrease in darunavir AUC” value ([4]; 18 women, once daily dosing)?
A: 22%

Q: And the Infected infants (HIV RNA; 12 mothers in the Zorrilla study who remained on therapy at delivery, 15 mothers in the Colbers study)?
A: no infected infants

Q: What about the “Women with HIV RNA below 1000 copies/mL approaching delivery” value (HIV RNA; once daily dosing, ref 24 (Colbers, et al)) of the same molecule?
A: 93%

Q: And the “Subjects with detectable HIV RNA (>50 copies/mL) during pregnancy” value (HIV RNA; twice daily dosing, ref 15 (Zorrilla, et al))?
A: 3 of 14

Q: What about the Free fraction ([5]; 14 women postpartum) of the same molecule?
A: 10%

Q: And the Free fraction ([5]; 19 women in the third trimester)?
A: 12%

Source: paper PMC4579345 (Journal of acquired immune deficiency syndromes (1999), 2015)
